“Also recorded” adds a separate entry of the source.
Legend:
[1] = In Use stability study: repagermanium IR capsules reconstituted in water in a medical pot, with or without nasogastric tube (assay, appearance, pH); type: physicochemical; settings: reconstituted in 15 ml water in a medical pot, up to 3 h (180 minutes)
Procedure: An In Use stability study was performed to determine the reconstitution and dosage information for administration of repagermanium IR capsules via nasogastric feeding tube. The objective of the study was to: • 1. measure the stability of the repagermanium drug product composition once reconstituted in water for administration via a gastric tube, • 2. determine if there is any residual repagermanium remaining in the medicine pot after the first 15 mL solution has been removed, and • 3. identify if additional flushing of the nasogastric tube will be required to deliver the correct dose of repagermanium. There were 6 experiments in total. Each experiment was performed in duplicate (except for micro tests). [table]

[2] = test system: monocytes; settings: Yokochi (2001); Yamada (2004); cited from earlier work
[3] = molecular target: MCP-1 (Homo sapiens, UniProt P13500); settings: Yokochi (2001); Yamada (2004); cited from earlier work
Chain of MCP-1 (P13500 24-99, species assumed): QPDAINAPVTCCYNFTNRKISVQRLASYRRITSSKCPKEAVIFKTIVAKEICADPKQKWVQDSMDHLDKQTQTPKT

Structure (SMILES) | chemical and microbiological stability after reconstitution [1] | inhibition of in vitro chemotactic migration of monocytes by MCP-1 [2] | inhibition of MCP-1 binding [3]
O=C(O)C[CH2][Ge](=[O])[O][Ge](=[O])[CH2]CC(=O)O [repagermanium, 3-[(2-carboxyethyl-oxogermyl)oxy-oxogermyl] propanoic acid] | chemically and microbiologically stable |  | 
O=C(O)C[CH2][Ge](=[O])[O][Ge](=[O])[CH2]CC(=O)O [Propagermanium, 3-[(2-carboxyethyl-oxogermyl)oxy-oxogermyl] propanoic acid] |  | specifically inhibit in vitro chemotactic migration of monocytes by MCP-1; also recorded: inhibits in-vitro chemotactic migration of monocytes by MCP-1 | does not inhibit MCP-1 binding

From US20250049840A1, “COMPOSITIONS COMPRISING A CHEMOKINE RECEPTOR PATHWAY INHIBITOR” (DIMERIX BIOSCIENCE PTY LTD, priority 2022, published 2025)
